Reference: patent US10407432B2, “[1,2,4]triazolo[4,3-B]pyridazines for use in the treatment of proliferative diseases” (AstraZeneca AB, priority 2014, dated 2019)

What was measured:
[1] = pKa determination
[2] = molecular target: T1, BRD4 (1) (Homo sapiens, UniProt O60885); experiment: Alpha-Screen assay, BRD4 BD1; assay type: binding; set-up: 6His-TEV-BRD4, amino acid residues 42-169, corresponding to the BD1 domain; details: 6His-TEV-BRD4 residues 42-169 (BD1), H4K5,8,12,16(Ac)4-biotin peptide
Protocol: The ability of the compounds to bind to a bromodomain protein was tested in an AlphaScreen® assay. The assay is based on the interaction between Histidine-tagged bromodomain protein which can bind to Nickel-chelate donor beads, and a Biotinylated acetyl lysine peptide corresponding to a histone amino acid sequence, which can bind to streptavidin-conjugated acceptor beads. The protein-peptide interaction can be detected by light emission at 520-620 nm. In the presence of compounds which bind to BRD4 a lower signal is observed as the protein-peptide interaction is reduced. • 1. The assay was performed as follows: —Greiner BioOne (cat no. 784075) compound plates were used. Compounds were prepared using the Labcyte Echo Acoustic Dispenser with compounds in a final volume of 40 nl per well normalised to 0.5% (v/v) DMSO under final assay conditions. Compounds were tested in 12 point singlicate concentration response format. • 2. 4 μl of BRD4 protein (6His-TEV-BRD4, amino acid residues 42-169, corresponding to the BD1 domain) (final assay concentration=50 nM) per well was added using the Beckman Coulter BioRAPTR® Flying Reagent Dispensor Microfluidic Workstation. • 3. Incubated for 30 minutes at room temperature. • 4. Added 4 μl of acetyl lysine peptide (H4K5,8,12,16(Ac)4-biotin:(NH2-) YSGRG(K-Ac)GG(K-Ac)GLG(K-Ac)GGA(K-Ac)RHR(K-Biotin)(—COOH)) (final assay concentration=50 nM) per well using the Beckman Coulter BioRAPTR® Flying Reagent Dispensor Microfluidic Workstation. • 5. Incubated for 30 minutes at room temperature. • 6. Added 4 μl of Nickel & Streptavidin-bead solution pre-mixed (beads supplied by Perkin Elmer) per well using the BioRaptr as before (final assay concentration=4 μg/ml). Kept plates in the dark after addition. • 7. Incubated for 60 minutes at room temperature keeping the assay plate in the dark • 8. Plates were then read using the Perkin Elmer Envision plate reader, laser excitation at 680 nm and emission detected at 520-620 nm. • 9. Data was analysed using Genedata software and IC50 values calculated.

[3] = system: MM1.S cells; experiment: Anti-proliferative assay (AlamarBlue) in MM1.S cells; assay type: cell-based; details: Homo sapiens, 72 h, 3 days of culture, read-out: MM1.S Antiproliferative GI50/μM
Protocol: Anti-proliferative assay The anti-proliferative effect of the compounds was assessed by AlamarBlue assay in MM1.S cells which were originally derived from a multiple myeloma patient. This assay is based on Resazurin, a non-fluorescent indicator dye converted to bright red-fluorescent resorufin via the reduction reactions of metabolically active cells. The amount of fluorescence produced is proportional to the number of living cells. MM.1S cells are cultured in RPMI-1640 medium (Gibco®) plus 10% Fetal bovine serum (FBS) and 1 mM L-glutamine. 12-24 hours before compound dosing, 90 μL of cell suspension (18,750 cells) was seeded into 96-well microtiter plates (black, flat bottom). On the day of compound dosing, compounds were serially diluted 1:3 in 100% DMSO using columns 2-10 of a 96-well microtiter plate. Column 11 of compound serial plate contained only DMSO. All wells were then further diluted 1:30 in media. 10 μL of compound or DMSO alone in media was added to cell plates columns 2-11 in triplicate. In addition, 1 plate had 10 μL of media added and was developed using alamar blue. Plates developed on the day of compound addition were referred to as Day 0. Dosed plates were cultured 3 days under normal conditions (RPMI-1640 plus 10% FBS and 1 mM L-glutamine) After 3 days of culture, dosed plates are developed using either MTS or alamar blue. For each compound concentration, % net growth was calculated by
(Day 3 dosed well-Average Day 0)/(Average Day 3 DMSO control-Average Day 0). The GI50, the concentration that causes 50% of growth inhibition, of each compound was calculated using the % net growth as defined by National Cancer Institute (NCI).

[4] = molecular target: T1, BRD4 (1); experiment: BROMOscan assay (DiscoverX) BRD4(1); assay type: binding; set-up: purchased Discoverx (BROMOscan service)
Protocol: (§1) BROMOscan™ Assay (ex Discoverx)
(§2) The ability of the compounds to bind to a bromodomain protein was tested by Discoverx using their proprietory ligand binding site-directed competition assay. Supplied compounds were anonymised.
(§3) The BROMOscan assay is based on the principle that test compounds that bind the bromodomain protein prevent its binding to an immobilized ligand thus reducing the amount of protein captured on a solid support. […] Screening “hits” are identified by measuring the amount of bromodomain captured in test versus control samples by using a quantitative, precise and ultra-sensitive qPCR method that detects the associated DNA label. In a similar manner, dissociation constants (Kds) for test compound-bromodomain interactions are calculated by measuring the amount of bromodomain protein captured on the solid support as a function of the test compound concentration.

[5] = system: cMyc protein; experiment: Assay monitoring cMyc protein modulation in MM1.S cells (flow cytometry); assay type: cell-based; details: Homo sapiens, c-Myc protein level, 16 hours treatment, read-out: MM1.S “MoA” IC50/μM
Protocol: Assay Monitoring cMyc Protein Modulation
Multiple myeloma MM1.S cells were cultured in RPMI-1640 medium containing 10% FBS and 1% L-glutamine under standardized conditions in a humidified incubator (37° C. and 5% CO2). The impact of cMyc protein modulation induced by bromodomain inhibitors was assessed by staining and quantifying c-Myc protein level after compound treatment using a flow cytometer Assay, carried out in 96-well plate format with 200K cells per well. Cells were treated with serially diluted compounds 16 hours before fixing with 2% paraformaldehyde (final concentration) for 10 minutes at 37° C. After being permeablized by ice cold 90% methanol at 4° C. for 30 min, cells were washed, blocked by buffer (0.5% FBS in phosphate-buffered saline (PBS) buffer) for 10 minutes at room temperature, and stained with cMyc antibody for 1 hour (Cell Signaling Technology®5605, 1:200 dilution). Cells were washed and stained by incubating with Alexa-488 conjugated anti-Rabbit IgG (Cell Signaling Technology®#4412, 1:1000 dilution) at RT for 30 minutes. After staining, cells were washed again and fixed with 2% paraformaldehyde in PBS and ready for analysis by BD FACSCalibur™ flow cytometer. Fluorescence geometric mean was calculated through FlowJo (TreeStar Inc), maximal inhibition signal was determined by control compound treatment at high dose across each plate, and minimal inhibition signal was determined by DMSO treatment. IC50 was calculated by fitting the dose-response data points which are normalized against max and min signals as percentage of inhibition using a standard 4-Parameter-Logistic nonlinear regression model.

[6] = molecular target: T2, BRD4 (2) (Homo sapiens, UniProt O60885); experiment: BROMOscan assay (DiscoverX) BRD4(2); assay type: binding
T2 construct: purchased Discoverx (BROMOscan service)
Protocol: as §1, §2, §3

[7] = Hygroscopicity of co-crystal versus free base; assay type: physicochemical
[8] = Stability under temperature and humidity conditions; assay type: physicochemical; details: exposed to range of temperature and humidity conditions
[9] = molecular target: T3, BRDT (1) (Homo sapiens, UniProt Q58F21); experiment: BROMOscan assay (DiscoverX) BRDT(1); assay type: binding
T3 construct: purchased Discoverx (BROMOscan service)
Protocol: as §1, §2, §3

[10] = molecular target: T4, BRD2 (2) (Homo sapiens, UniProt P25440); experiment: BROMOscan assay (DiscoverX) BRD2(2); assay type: binding
T4 construct: purchased Discoverx (BROMOscan service)
Protocol: as §1, §2, §3

[11] = molecular target: T5, BRD2 (1) (Homo sapiens, UniProt P25440); experiment: BROMOscan assay (DiscoverX) BRD2(1); assay type: binding
T5 construct: purchased Discoverx (BROMOscan service)
Protocol: as §1, §2, §3

[12] = molecular target: T6, BRD3 (2) (Homo sapiens, UniProt Q15059); experiment: BROMOscan assay (DiscoverX) BRD3(2); assay type: binding
T6 construct: purchased Discoverx (BROMOscan service)
Protocol: as §1, §2, §3

[13] = molecular target: T7, BRDT (2) (Homo sapiens, UniProt Q58F21); experiment: BROMOscan assay (DiscoverX) BRDT(2); assay type: binding
T7 construct: purchased Discoverx (BROMOscan service)
Protocol: as §1, §2, §3

[14] = molecular target: T8, BRD3 (1) (Homo sapiens, UniProt Q15059); experiment: BROMOscan assay (DiscoverX) BRD3(1); assay type: binding
T8 construct: purchased Discoverx (BROMOscan service)
Protocol: as §1, §2, §3

[15] = system: MV-4-11 cells; experiment: MV-4-11 xenograft model; assay type: in vivo, mouse; details: CB17 SCID mice, 10 mg/kg PO qd for 21 days, FIG. 5
Protocol: Compound A was also investigated in a xenograft model as described below.
Female CB17 SCID mice aged 6 to 8 weeks were obtained from Charles River Laboratories (Wilmington, Mass.) and maintained under specific-pathogen-free conditions in an AAALAC (Association for Assessment and Accreditation of Laboratory Animal Care)—accredited facility. Irradiated food and autoclaved water were provided ad libitum.
MV-4-11 cells ([…]) were resuspended in 0.1 ml of medium without serum and Matrigel (Becton Dickinson) at a 1:1 ratio. Cells (10^7/mouse) were injected subcutaneouly into the right flank of mice. Tumors were allowed to grow until they reached an average volume of 200 mm^3 for efficacy and then the mice were randomized into groups of 8. Compound A was solubilized in 0.5% HPMC/0.1% Tween80 for dosing. For efficacy, either vehicle or Compound A was administered PO once a day (qd) for 21 days at 10 mg/kg (mpk). Body weight and tumour volume were measured twice a week for 21 days.

[16] = physchem

T6 sequence (Q15059 306-415 limits assumed): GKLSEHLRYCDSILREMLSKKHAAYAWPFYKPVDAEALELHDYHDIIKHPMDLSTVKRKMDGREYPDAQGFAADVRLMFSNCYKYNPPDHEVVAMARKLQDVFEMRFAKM
T4 sequence (P25440 344-453 limits assumed): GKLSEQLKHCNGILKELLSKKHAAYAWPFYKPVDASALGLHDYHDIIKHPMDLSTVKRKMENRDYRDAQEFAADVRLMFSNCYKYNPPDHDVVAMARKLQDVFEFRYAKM
T8 sequence (Q15059 34-140 limits assumed): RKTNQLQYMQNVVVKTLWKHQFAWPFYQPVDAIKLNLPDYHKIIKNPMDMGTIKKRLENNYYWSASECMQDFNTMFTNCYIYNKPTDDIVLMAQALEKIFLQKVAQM
T5 sequence (P25440 74-180 limits assumed): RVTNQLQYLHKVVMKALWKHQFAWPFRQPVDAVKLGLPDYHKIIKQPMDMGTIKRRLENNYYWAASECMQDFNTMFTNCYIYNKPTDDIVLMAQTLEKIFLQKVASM

| pKa [1] | IC50 [2] [µM] | GI50 [3] [µM] | Kd [4] [µM] | IC50 [5] [µM] | Kd [6] [µM] | Stability compared to Compound A free base [8] | Kd [9] [µM] | Kd [10] [µM] | Kd [11] [µM] | Kd [12] [µM] | Kd [13] [µM] | Kd [14] [µM] | pKa [16] | SMILES | Hygroscopicity compared to Compound A free base [7] | Tumour growth inhibition (tumour volume) [15] |
| --- | --- | --- | --- | --- | --- | --- | --- | --- | --- | --- | --- | --- | --- | --- | --- | --- |
| 4.3 |  |  |  |  |  |  |  |  |  |  |  |  |  | O=C(O)c1ccc2cc(O)ccc2c1 [6-hydroxy-2-naphthoic acid] |  |  |
|  | 0.14 | 0.0051 | 0.057 | 0.012 | 0.25 |  |  |  |  |  |  |  |  | COc1nnc2ccc(N3CCC(c4ccc(OCCCN5[C@H](C)CN(C(C)=O)C[C@@H]5C)cc4)CC3)nn12 [Example 4, 1-((3R,5S)-4-(3-(4-(1-(3-methoxy-[1,2,4]triazolo[4,3-b]pyridazin-6-yl)piperidin-4-yl)phenoxy)propyl)-3,5-dimethylpiperazin-1-yl)ethanone] |  |  |
|  |  |  |  |  |  | more stable than Compound A free base |  |  |  |  |  |  |  | COc1nnc2ccc(N3CCC(c4ccc(OCCN5CCN(C)C(=O)[C@H]5C)cc4)CC3)nn12.O=C(O)c1ccc2cc(O)ccc2c1 [(R)-4-(2-(4-(1-(3-methoxy-[1,2,4]triazolo[4,3-b]pyridazin-6-yl)piperidin-4-yl)phenoxy)ethyl)-1,3-dimethylpiperazin-2-one:6-hydroxy-2-naphthoic acid (1:1) co-crystal] | significantly less hydroscopic than Compound A free base |  |
|  | 0.3 | 0.0075 | 0.11 | 0.025 | 0.34 |  | 0.093 | 0.53 | 0.16 | 0.67 | 0.99 | 0.11 |  | COc1nnc2ccc(N3CCC(c4ccc(OCCCN5CCN(C)C(=O)[C@H]5C)cc4)CC3)nn12 [Example 3, (R)-4-(3-(4-(1-(3-methoxy-[1,2,4]triazolo[4,3-b]pyridazin-6-yl)piperidin-4-yl)phenoxy)propyl)-1,3-dimethylpiperazin-2-one] |  |  |

Further lines, the compound ahead of its results:

| SMILES | pKa [1] | IC50 [2] [µM] | GI50 [3] [µM] | Kd [4] [µM] | IC50 [5] [µM] | Kd [6] [µM] | Stability compared to Compound A free base [8] | Kd [9] [µM] | Kd [10] [µM] | Kd [11] [µM] | Kd [12] [µM] | Kd [13] [µM] | Kd [14] [µM] | pKa [16] | Hygroscopicity compared to Compound A free base [7] | Tumour growth inhibition (tumour volume) [15] |
| --- | --- | --- | --- | --- | --- | --- | --- | --- | --- | --- | --- | --- | --- | --- | --- | --- |
| COc1nnc2ccc(N3CCC(c4ccc(OCCN5[C@H](C)CN(C(C)=O)C[C@@H]5C)cc4)CC3)nn12 [Example 2, 1-((3S,5R)-4-(2-(4-(1-(3-methoxy-[1,2,4]triazolo[4,3-b]pyridazin-6-yl)piperidin-4-yl)phenoxy)ethyl)-3,5-dimethylpiperazin-1-yl)ethanone] |  | 0.035 | < 0.002 | 0.026 | < 0.002 | 0.29 |  | 0.035 | 0.35 | 0.083 | 0.92 | 1.1 | 0.057 |  |  |  |
| COc1nnc2ccc(N3CCC(c4ccc(OCCN5CCN(C)C(=O)[C@H]5C)cc4)CC3)nn12 [Example 1, (R)-4-(2-(4-(1-(3-methoxy-[1,2,4]triazolo[4,3-b]pyridazin-6-yl)piperidin-4-yl)phenoxy)ethyl)-1,3-dimethylpiperazin-2-one] |  | 0.12 | 0.0049 | 0.047 | 0.011 | 0.13 |  | 0.095 | 0.28 | 0.1 | 0.43 | 0.45 | 0.064 | < 1 |  | Tumour Growth Inhibition |
